“And” between values parts separate entries of the source, which are not always exact repeats. Equal values may be shown once. Read-outs that look alike come from different tables or passages of the source.
Experiments:
cress [1] = test system: cress; parameters: method as in doi:10.1134/S0036023620090089; conditions: cited from earlier work
CaCo-2 = test system: CaCo-2; parameters: method as in doi:10.1039/C4TX00079J; conditions: CaCo-2 ref 39; cited from earlier work
NIH/3T3 = test system: NIH/3T3; parameters: method as in doi:10.1039/C4TX00079J; conditions: NIH/3T3 ref 39; cited from earlier work
[2] = parameters: method as in PMID 28665154; conditions: cited from earlier work
[3] = test system: 3T3 cell (mouse embryonic fibroblasts); conditions: cited from earlier work
cress [4] = test system: cress; parameters: method as in PMID 19052732; conditions: cress seed, highest concentration of 1000 mg L^−1 ref 17; cited from earlier work
L929 fibroblasts = test: Mammalian cell cytotoxicity screening, resazurin viability; type: cell-based, mouse
S. aureus ATCC 6538 = test: Antimicrobial activity, broth microdilution MIC/MBC; type: cell-based, Staphylococcus aureus; conditions: S. aureus ATCC 6538, 24 h at 37 °C, at least 90% growth inhibition; nd—not detected
E. coli ATCC 8739 = test: as above; type: cell-based, Escherichia coli; conditions: nd—not detected; for MIC (%): E. coli ATCC 8739, 24 h at 37 °C, at least 90% growth inhibition; for MBC (%): E. coli ATCC 8739
C. albicans ATCC 10231 = test: as above; type: cell-based, Candida albicans; conditions: C. albicans ATCC 10231, 24 h at 37 °C, at least 90% growth inhibition; nd—not detected
[5] = test system: Lepidium sativum L. seeds; conditions: 24 h incubation, mean(±SD), n = 3
[6] = test system: Lepidium sativum L. roots; conditions: 24 h incubation, mean(±SD), n = 3
E. coli = test system: E. coli; parameters: method as in doi:10.3139/113.110524; conditions: E. coli ref 49; cited from earlier work
[7] = 0.01% (w/w) compound in the medium
[8] = 0.03% (w/w) compound in the medium
[9] = 0.05% (w/w) compound in the medium
[10] = 0.10% (w/w) compound in the medium
[11] = 0.30% (w/w) compound in the medium
[12] = 0.50% (w/w) compound in the medium
[13] = 1.00% (w/w) compound in the medium
[14] = 2.00% (w/w) compound in the medium
[15] = 3.00% (w/w) compound in the medium
[16] = 4.00% (w/w) compound in the medium
[17] = 5.00% (w/w) compound in the medium

O=C(O)c1ccccc1O.OCCN(CCO)CCO [TEA salicylate]
effect on root and shoot length (cress [1]; 0.03 mg L^−1 ref 12): significant inhibition effect

O=C(O)C=Cc1ccccc1.OCCN(CCO)CCO [TEA salt of cinnamic acid]
effect on cress seed germination and root growth (cress [1]; 0.003 and 0.03 mg L^−1 ref 12): most visible stimulation

CCCCn1cc[n+](C)c1 [[BMIM][(L)-Lac]]
IC50 (CaCo-2): 19.2 mM
IC50 (NIH/3T3): 33.6 mM

CCCCn1cc[n+](C)c1.C[C@H](N)C(=O)[O-] [[BMIM][Ala]]
IC50 (CaCo-2): 19.3 mM
IC50 (NIH/3T3): 30.2 mM

CCCCn1cc[n+](C)c1 [[BMIM][BF4]]
IC50 (CaCo-2): 11.2 mM
IC50 (NIH/3T3): 11.3 mM

CCCCn1cc[n+](C)c1 [[BMIM][PF6]]
IC50 (CaCo-2): 11.5 mM

C[N+](C)(C)CCO.N[C@@H](CCC(=O)O)C(=O)[O-] [[Cho][Glu]]
IC50 [2]: 0.43 % (v/v)

C[N+](C)(C)CCO.NCC(=O)[O-] [[Cho][Gly]]
Cell viability [3]: over 90%

NCC(=O)O [[Cho][Gly]]
IC50 ([3]; 3T3 cells, 48 h, printed also as (1%) ref 34): ~55 mM

C[N+](C)(C)CCO.NC(Cc1ccccc1)C(=O)[O-] (stereo not drawn) [[Cho][Phe]]
IC50 [2]: 0.42 % (v/v)

CCn1cc[n+](C)c1.[Cl-] [[EMIM][Cl]]
decrease in germination (cress [4]): 85%

CCCCCCn1cc[n+](C)c1.[Cl-] [[HMIM][Cl]]
decrease in germination (cress [4]): 100%

NCCCC[C@H](N)C(=O)O.OCCN(CCO)CCO [[TEA][Lys]]
ED20 (L929 fibroblasts; 24h exposure): 0.23±0.01%
ED50 (L929 fibroblasts; 24h exposure): 0.43±0.01%
ED80 (L929 fibroblasts; 24h exposure): 0.69±0.02%
ED20 (L929 fibroblasts; 48h exposure): 0.21±0.01%
ED50 (L929 fibroblasts; 48h exposure): 0.33±0.01%
ED80 (L929 fibroblasts; 48h exposure): 0.46±0.01%
MIC (%) (S. aureus ATCC 6538): 1.88%
MIC (%) (E. coli ATCC 8739): 0.94%
MBC (%) (E. coli ATCC 8739): 3.75%
MIC (%) (C. albicans ATCC 10231): 0.94%
Inhibition of the Lepidium sativum seeds germination (ISG, %) [5, 7]: 0.0(±0.0) %
Inhibition of the Lepidium sativum seeds germination (ISG, %) [5, 8]: 0.0(±0.0) %
Inhibition of the Lepidium sativum seeds germination (ISG, %) [5, 9]: 0.0(±0.0) %
Inhibition of the Lepidium sativum seeds germination (ISG, %) [5, 10]: 0.0(±0.0) %
Inhibition of the Lepidium sativum seeds germination (ISG, %) [5, 11]: 0.0(±0.0) %
Inhibition of the Lepidium sativum seeds germination (ISG, %) [5, 12]: 0.0(±0.0) %
Inhibition of the Lepidium sativum seeds germination (ISG, %) [5, 13]: 1.9(±0.8) %
Inhibition of the Lepidium sativum seeds germination (ISG, %) [5, 14]: 11.5%
Inhibition of the Lepidium sativum seeds germination (ISG, %) [5, 15]: 38.5%
Inhibition of the Lepidium sativum seeds germination (ISG, %) [5, 16]: 57.7(±3.1) %
Inhibition of the root growth in pregerminated Lepidium sativum seeds (IRG, %) [6, 7]: 9.2(±1.9) %
Inhibition of the root growth in pregerminated Lepidium sativum seeds (IRG, %) [6, 8]: 14.6(±2.1) %
Inhibition of the root growth in pregerminated Lepidium sativum seeds (IRG, %) [6, 9]: 20.0(±1.9) %
Inhibition of the root growth in pregerminated Lepidium sativum seeds (IRG, %) [6, 10]: 24.5(±1.9) %
Inhibition of the root growth in pregerminated Lepidium sativum seeds (IRG, %) [6, 11]: 52.7(±1.7) %
Inhibition of the root growth in pregerminated Lepidium sativum seeds (IRG, %) [6, 12]: 62.3(±1.2) %
Inhibition of the root growth in pregerminated Lepidium sativum seeds (IRG, %) [6, 13]: 63.5(±0.9) %
Inhibition of the root growth in pregerminated Lepidium sativum seeds (IRG, %) [6, 14]: 78.9(±0.8) %
Inhibition of the root growth in pregerminated Lepidium sativum seeds (IRG, %) [6, 15]: 84.9(±0.8) %
Inhibition of the root growth in pregerminated Lepidium sativum seeds (IRG, %) [6, 16]: 90.2(±0.6) %
Inhibition of the root growth in pregerminated Lepidium sativum seeds (IRG, %) [6, 17]: 94.9(±0.5) %

O=C(O)[C@@H]1CCCN1.OCCN(CCO)CCO [[TEA][Pro]]
ED20 (L929 fibroblasts; 24h exposure): 0.32±0.05%
ED50 (L929 fibroblasts; 24h exposure): 0.56±0.04%
ED80 (L929 fibroblasts; 24h exposure): 0.86±0.14%
ED20 (L929 fibroblasts; 48h exposure): 0.35±0.04%
ED50 (L929 fibroblasts; 48h exposure): 0.64±0.04%
ED80 (L929 fibroblasts; 48h exposure): 1.00±0.13%
MIC (%) (S. aureus ATCC 6538): 7.50%
MIC (%) (E. coli ATCC 8739): 7.50%
MBC (%) (E. coli ATCC 8739): 7.50%
MIC (%) (C. albicans ATCC 10231): 7.50%
Inhibition of the Lepidium sativum seeds germination (ISG, %) [5, 7]: 3.7(±0.5) %
Inhibition of the Lepidium sativum seeds germination (ISG, %) [5, 8]: 6.5(±0.5) %
Inhibition of the Lepidium sativum seeds germination (ISG, %) [5, 9]: 9.3(±0.5) %
Inhibition of the Lepidium sativum seeds germination (ISG, %) [5, 10]: 16.7(±0.8) %
Inhibition of the Lepidium sativum seeds germination (ISG, %) [5, 11]: 18.5(±0.5) %
Inhibition of the Lepidium sativum seeds germination (ISG, %) [5, 12]: 20.4(±1.3) %
Inhibition of the Lepidium sativum seeds germination (ISG, %) [5, 13]: 25.9(±1.3) %
Inhibition of the Lepidium sativum seeds germination (ISG, %) [5, 14]: 29.6(±0.9) %
Inhibition of the Lepidium sativum seeds germination (ISG, %) [5, 15]: 40.7(±0.5) %
Inhibition of the Lepidium sativum seeds germination (ISG, %) [5, 16]: 51.9(±0.5) %
Inhibition of the Lepidium sativum seeds germination (ISG, %) [5, 17]: 79.6(±0.5) %
Inhibition of the root growth in pregerminated Lepidium sativum seeds (IRG, %) [6, 7]: 0.0(±0.0) %
Inhibition of the root growth in pregerminated Lepidium sativum seeds (IRG, %) [6, 8]: 20.7(±2.1) %
Inhibition of the root growth in pregerminated Lepidium sativum seeds (IRG, %) [6, 9]: 27.3(±2.2) %
Inhibition of the root growth in pregerminated Lepidium sativum seeds (IRG, %) [6, 10]: 39.5(±1.9) %
Inhibition of the root growth in pregerminated Lepidium sativum seeds (IRG, %) [6, 11]: 57.5(±1.5) %
Inhibition of the root growth in pregerminated Lepidium sativum seeds (IRG, %) [6, 12]: 67.7(±1.1) %
Inhibition of the root growth in pregerminated Lepidium sativum seeds (IRG, %) [6, 13]: 74.5(±1.2) %
Inhibition of the root growth in pregerminated Lepidium sativum seeds (IRG, %) [6, 14]: 83.0(±0.7) %
Inhibition of the root growth in pregerminated Lepidium sativum seeds (IRG, %) [6, 15]: 88.2(±0.6) %
Inhibition of the root growth in pregerminated Lepidium sativum seeds (IRG, %) [6, 16]: 90.1(±0.8) %
Inhibition of the root growth in pregerminated Lepidium sativum seeds (IRG, %) [6, 17]: 92.0(±0.7) %

NC(CO)C(=O)O.OCCN(CCO)CCO [[TEA][Ser]]
ED20 (L929 fibroblasts; 24h exposure): 0.26±0.03%
ED50 (L929 fibroblasts; 24h exposure): 0.55±0.04%
ED80 (L929 fibroblasts; 24h exposure): 0.98±0.11%
MIC (%) (S. aureus ATCC 6538): 7.50%
MIC (%) (E. coli ATCC 8739): 7.50%
MBC (%) (E. coli ATCC 8739): 7.50%
MIC (%) (C. albicans ATCC 10231): 3.75%
Inhibition of the Lepidium sativum seeds germination (ISG, %) [5, 7]: 0.0(±0.0) %
Inhibition of the Lepidium sativum seeds germination (ISG, %) [5, 8]: 0.0(±0.0) %
Inhibition of the Lepidium sativum seeds germination (ISG, %) [5, 9]: 0.0(±0.0) %
Inhibition of the Lepidium sativum seeds germination (ISG, %) [5, 10]: 2.8(±1.7) %
Inhibition of the Lepidium sativum seeds germination (ISG, %) [5, 11]: 5.7(±1.3) %
Inhibition of the Lepidium sativum seeds germination (ISG, %) [5, 12]: 6.6(±0.9) %
Inhibition of the Lepidium sativum seeds germination (ISG, %) [5, 13]: 7.5(±1.7) %
Inhibition of the Lepidium sativum seeds germination (ISG, %) [5, 14]: 17.0(±0.5) %
Inhibition of the Lepidium sativum seeds germination (ISG, %) [5, 16]: 34.0(±2.6) %
Inhibition of the root growth in pregerminated Lepidium sativum seeds (IRG, %) [6, 7]: 0.0(±0.0) % and 0%
Inhibition of the root growth in pregerminated Lepidium sativum seeds (IRG, %) [6, 8]: 0.0(±0.0) % and 0%
Inhibition of the root growth in pregerminated Lepidium sativum seeds (IRG, %) [6, 9]: 0.0(±0.0) % and 0%
Inhibition of the root growth in pregerminated Lepidium sativum seeds (IRG, %) [6, 11]: 14.6%
Inhibition of the root growth in pregerminated Lepidium sativum seeds (IRG, %) [6, 12]: 25.3%
Inhibition of the root growth in pregerminated Lepidium sativum seeds (IRG, %) [6, 13]: 70.2(±0.7) %
Inhibition of the root growth in pregerminated Lepidium sativum seeds (IRG, %) [6, 14]: 77.8(±0.6) %
Inhibition of the root growth in pregerminated Lepidium sativum seeds (IRG, %) [6, 15]: 79.5(±0.6) %
Inhibition of the root growth in pregerminated Lepidium sativum seeds (IRG, %) [6, 16]: 81.3(±0.5) %
Inhibition of the root growth in pregerminated Lepidium sativum seeds (IRG, %) [6, 17]: 91.2(±0.4) %

benzalkonium chloride
MIC (E. coli): 15 µg/mL

Reference: PMC12029836, “Phytotoxicity, Cytotoxicity, and Antimicrobial Activity of Triethanolammonium Amino Acids Salts” (Molecules, 2025)
